Data as given in patent US20250243180A1, “TARGETED PROTEIN DEGRADATION” (Monte Rosa Therapeutics AG, priority 2023, published 2025).

target: CRBN-DDB1 (Homo sapiens (Human), UniProt Q96SW2); assay: Compound binding to CRBN by HTRF assay; conditions: not given
Procedure, shortened: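 Ki calculated via Cheng-Prusoff from geometric-mean EC50 values, after normalizing the HTRF ratio to lenalidomide (active) and DMSO (neutral) controls. Compounds (11 points, 1:3 steps) incubated 30 min at ambient temperature with CRBN-DDB1 2.5 nM, anti-His Tb cryptate and Cy5-thalidomide tracer 100 nM.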

Chain of CRBN-DDB1 (Q96SW2 whole entry): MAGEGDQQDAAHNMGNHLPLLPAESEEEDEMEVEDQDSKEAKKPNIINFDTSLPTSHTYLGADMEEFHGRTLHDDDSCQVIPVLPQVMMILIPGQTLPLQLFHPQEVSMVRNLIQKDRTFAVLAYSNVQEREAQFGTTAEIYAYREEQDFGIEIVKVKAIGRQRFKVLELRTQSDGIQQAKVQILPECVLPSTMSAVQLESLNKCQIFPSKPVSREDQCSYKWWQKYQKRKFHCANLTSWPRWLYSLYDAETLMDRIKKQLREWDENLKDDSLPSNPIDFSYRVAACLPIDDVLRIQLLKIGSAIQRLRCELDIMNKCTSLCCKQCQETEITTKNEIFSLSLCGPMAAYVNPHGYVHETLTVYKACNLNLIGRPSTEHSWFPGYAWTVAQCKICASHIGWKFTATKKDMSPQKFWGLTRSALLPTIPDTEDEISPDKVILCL
Chain of CRBN-DDB1 (Q16531 whole entry partner): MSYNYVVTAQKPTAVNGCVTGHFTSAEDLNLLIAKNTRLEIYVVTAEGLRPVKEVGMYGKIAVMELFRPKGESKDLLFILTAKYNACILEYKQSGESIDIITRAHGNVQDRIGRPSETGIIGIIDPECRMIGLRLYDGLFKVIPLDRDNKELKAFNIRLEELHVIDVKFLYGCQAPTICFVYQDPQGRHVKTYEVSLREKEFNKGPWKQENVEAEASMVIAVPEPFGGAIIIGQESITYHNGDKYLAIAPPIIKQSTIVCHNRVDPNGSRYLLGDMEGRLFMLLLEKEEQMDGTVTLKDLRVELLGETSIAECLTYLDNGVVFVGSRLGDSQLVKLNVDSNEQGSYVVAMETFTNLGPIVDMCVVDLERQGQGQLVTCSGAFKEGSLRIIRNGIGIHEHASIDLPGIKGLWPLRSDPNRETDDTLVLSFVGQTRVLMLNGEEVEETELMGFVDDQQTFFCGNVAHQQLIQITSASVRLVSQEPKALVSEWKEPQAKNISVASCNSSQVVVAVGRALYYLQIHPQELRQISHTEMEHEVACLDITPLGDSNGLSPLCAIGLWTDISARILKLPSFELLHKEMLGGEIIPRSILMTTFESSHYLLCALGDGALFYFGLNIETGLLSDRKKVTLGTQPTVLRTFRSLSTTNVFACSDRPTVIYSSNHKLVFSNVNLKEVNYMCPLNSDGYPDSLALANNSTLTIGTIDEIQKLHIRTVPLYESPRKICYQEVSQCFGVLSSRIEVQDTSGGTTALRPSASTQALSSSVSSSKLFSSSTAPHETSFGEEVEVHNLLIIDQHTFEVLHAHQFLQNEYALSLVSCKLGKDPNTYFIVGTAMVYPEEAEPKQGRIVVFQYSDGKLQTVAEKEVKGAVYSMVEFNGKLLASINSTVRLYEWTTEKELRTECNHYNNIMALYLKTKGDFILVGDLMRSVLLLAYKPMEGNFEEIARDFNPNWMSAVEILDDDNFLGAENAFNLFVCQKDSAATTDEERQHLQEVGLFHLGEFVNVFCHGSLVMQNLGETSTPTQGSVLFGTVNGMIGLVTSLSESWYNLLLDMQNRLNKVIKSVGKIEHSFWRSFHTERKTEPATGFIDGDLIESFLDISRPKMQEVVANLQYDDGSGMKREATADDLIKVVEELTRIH

| Compound | EC50 |
| --- | --- |
| CC1(c2cnc(C(C)(C)C(=O)NCc3cc(Cl)c(C4CCC(=O)NC4=O)c(Cl)c3)nc2)CC1 (stereo not drawn) [Compound 207] | 90 nM |
| CC(C)(C(=O)NCc1cc(Cl)c(C2CCC(=O)NC2=O)c(Cl)c1)c1nnc(C(F)(F)F)o1 (stereo not drawn) [Compound 208] | 170 nM |
| COc1cnc(C(C)(C)C(=O)NCc2cc(Cl)c(C3CCC(=O)NC3=O)c(Cl)c2)cn1 (stereo not drawn) [Compound 209] | 90 nM |
| CC(C)(C(=O)NCc1cc(Cl)c(C2CCC(=O)NC2=O)c(Cl)c1)c1ccc(OC(F)F)nn1 (stereo not drawn) [Compound 210] | 460 nM |
| CC(C)(C(=O)NCc1cc(Cl)c(C2CCC(=O)NC2=O)c(Cl)c1)C1CCCCC1 (stereo not drawn) [Compound 211] | 900 nM |
| Cc1nc(C(C)(C)C(=O)NCc2cc(Cl)c(C3CCC(=O)NC3=O)c(Cl)c2)oc1C (stereo not drawn) [Compound 212] | 70 nM |
| CC(C)(C(=O)NCc1cc(Cl)c(C2CCC(=O)NC2=O)c(Cl)c1)C1CCCC1 (stereo not drawn) [Compound 213] | 80 nM |
| CC(C)(C(=O)NCc1cc(Cl)c(C2CCC(=O)NC2=O)c(Cl)c1)c1nccc(CO)n1 (stereo not drawn) [Compound 215] | 120 nM |
| COc1nc(C(C)(C)C(=O)NCc2cc(Cl)c(C3CCC(=O)NC3=O)c(Cl)c2)ncc1C (stereo not drawn) [Compound 216] | 100 nM |

same assay, conditions: HTRF class; Cereblon binding

| Compound | EC50 |
| --- | --- |
| CC1(c2cnc(C(C)(C)C(=O)NCc3cc(Cl)c(C4CCC(=O)NC4=O)c(Cl)c3)nc2)CC1 (stereo not drawn) [Compound 207] | ≤ 100 nM |
| CC(C)(C(=O)NCc1cc(Cl)c(C2CCC(=O)NC2=O)c(Cl)c1)c1nnc(C(F)(F)F)o1 (stereo not drawn) [Compound 208] | 100 to 1000 nM |
| COc1cnc(C(C)(C)C(=O)NCc2cc(Cl)c(C3CCC(=O)NC3=O)c(Cl)c2)cn1 (stereo not drawn) [Compound 209] | ≤ 100 nM |
| CC(C)(C(=O)NCc1cc(Cl)c(C2CCC(=O)NC2=O)c(Cl)c1)c1ccc(OC(F)F)nn1 (stereo not drawn) [Compound 210] | 100 to 1000 nM |
| CC(C)(C(=O)NCc1cc(Cl)c(C2CCC(=O)NC2=O)c(Cl)c1)C1CCCCC1 (stereo not drawn) [Compound 211] | 100 to 1000 nM |
| Cc1nc(C(C)(C)C(=O)NCc2cc(Cl)c(C3CCC(=O)NC3=O)c(Cl)c2)oc1C (stereo not drawn) [Compound 212] | ≤ 100 nM |
| CC(C)(C(=O)NCc1cc(Cl)c(C2CCC(=O)NC2=O)c(Cl)c1)C1CCCC1 (stereo not drawn) [Compound 213] | ≤ 100 nM |
| CC(C)(C(=O)NCc1cc(Cl)c(C2CCC(=O)NC2=O)c(Cl)c1)c1nccc(CO)n1 (stereo not drawn) [Compound 215] | 100 to 1000 nM |
| COc1nc(C(C)(C)C(=O)NCc2cc(Cl)c(C3CCC(=O)NC3=O)c(Cl)c2)ncc1C (stereo not drawn) [Compound 216] | ≤ 100 nM |

target: NEK7 (Homo sapiens (Human), UniProt Q8TDX7+Q96SW2); assay: NEK7 NanoBiT degradation assay in Cal51 NEK7 NanoBiT cell line; type: cell-based; conditions: CAL-51; Cal51 NEK7 NanoBiT cells, 24 hours; read-out: NEK7 NanoBiT Dmax
Sequence (Q8TDX7 whole entry): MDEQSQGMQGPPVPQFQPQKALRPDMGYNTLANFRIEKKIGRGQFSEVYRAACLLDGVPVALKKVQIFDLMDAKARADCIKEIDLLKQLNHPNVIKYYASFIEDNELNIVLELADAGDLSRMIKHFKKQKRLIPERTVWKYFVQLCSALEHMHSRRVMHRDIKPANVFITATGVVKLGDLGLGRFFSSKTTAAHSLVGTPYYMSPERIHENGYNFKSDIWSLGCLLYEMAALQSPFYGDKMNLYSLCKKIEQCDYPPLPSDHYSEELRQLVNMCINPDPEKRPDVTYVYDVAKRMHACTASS
Sequence (Q96SW2 whole entry): as the sequence (Q96SW2 whole entry) above
Sequence (Q16531 2-1140 partner): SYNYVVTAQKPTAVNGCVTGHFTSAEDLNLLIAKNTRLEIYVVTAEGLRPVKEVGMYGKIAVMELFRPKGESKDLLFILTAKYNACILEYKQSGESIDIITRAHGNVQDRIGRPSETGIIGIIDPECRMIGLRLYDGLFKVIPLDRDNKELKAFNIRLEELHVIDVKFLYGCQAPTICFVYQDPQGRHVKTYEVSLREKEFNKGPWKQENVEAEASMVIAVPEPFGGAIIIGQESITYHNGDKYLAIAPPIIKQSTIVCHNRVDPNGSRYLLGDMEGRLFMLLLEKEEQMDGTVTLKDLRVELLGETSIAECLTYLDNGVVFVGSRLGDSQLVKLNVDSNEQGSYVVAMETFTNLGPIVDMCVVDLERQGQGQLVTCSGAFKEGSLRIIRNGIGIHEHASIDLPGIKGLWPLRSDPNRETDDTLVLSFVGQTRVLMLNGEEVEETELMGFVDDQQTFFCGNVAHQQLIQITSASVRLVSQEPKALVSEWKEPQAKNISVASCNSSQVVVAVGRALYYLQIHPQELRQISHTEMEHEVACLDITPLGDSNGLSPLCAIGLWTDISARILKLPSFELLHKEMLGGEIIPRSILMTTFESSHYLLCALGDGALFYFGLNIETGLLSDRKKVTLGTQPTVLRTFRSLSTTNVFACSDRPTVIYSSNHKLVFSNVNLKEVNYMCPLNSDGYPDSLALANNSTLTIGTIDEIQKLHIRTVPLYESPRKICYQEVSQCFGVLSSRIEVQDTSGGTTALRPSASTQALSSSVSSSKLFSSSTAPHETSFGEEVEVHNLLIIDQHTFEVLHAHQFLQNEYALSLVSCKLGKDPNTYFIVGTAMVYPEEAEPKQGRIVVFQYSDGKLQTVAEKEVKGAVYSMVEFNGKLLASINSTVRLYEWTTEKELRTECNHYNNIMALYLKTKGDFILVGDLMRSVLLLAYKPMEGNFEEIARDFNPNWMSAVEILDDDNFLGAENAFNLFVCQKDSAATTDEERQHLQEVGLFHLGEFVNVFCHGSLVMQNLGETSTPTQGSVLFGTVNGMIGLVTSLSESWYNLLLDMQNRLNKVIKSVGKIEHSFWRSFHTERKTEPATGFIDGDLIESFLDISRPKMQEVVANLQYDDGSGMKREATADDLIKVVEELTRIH
Procedure, shortened: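 EC50 comes from a 4-parameter fit of control-normalized luminescence. The luminescence reports HiBiT-NEK7 (endogenous knock-in) complemented by stably expressed LgBiT in Cal51 cells after 24 h compound exposure at 37 °C. Final concentrations ran 1 μM to 0.05 nM, with Endurazine substrate present in the medium throughout.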

| Compound | Dmax |
| --- | --- |
| CC1(c2cnc(C(C)(C)C(=O)NCc3cc(Cl)c(C4CCC(=O)NC4=O)c(Cl)c3)nc2)CC1 (stereo not drawn) [Compound 207] | 82% |
| CC(C)(C(=O)NCc1cc(Cl)c(C2CCC(=O)NC2=O)c(Cl)c1)c1nnc(C(F)(F)F)o1 (stereo not drawn) [Compound 208] | 56% |
| COc1cnc(C(C)(C)C(=O)NCc2cc(Cl)c(C3CCC(=O)NC3=O)c(Cl)c2)cn1 (stereo not drawn) [Compound 209] | 97% |
| CC(C)(C(=O)NCc1cc(Cl)c(C2CCC(=O)NC2=O)c(Cl)c1)c1ccc(OC(F)F)nn1 (stereo not drawn) [Compound 210] | 96% |
| CC(C)(C(=O)NCc1cc(Cl)c(C2CCC(=O)NC2=O)c(Cl)c1)C1CCCCC1 (stereo not drawn) [Compound 211] | 90% |
| Cc1nc(C(C)(C)C(=O)NCc2cc(Cl)c(C3CCC(=O)NC3=O)c(Cl)c2)oc1C (stereo not drawn) [Compound 212] | 90% |
| CC(C)(C(=O)NCc1cc(Cl)c(C2CCC(=O)NC2=O)c(Cl)c1)C1CCCC1 (stereo not drawn) [Compound 213] | 78% |
| CC(C)(C(=O)NCc1cc(Cl)c(C2CCC(=O)NC2=O)c(Cl)c1)c1nccc(CO)n1 (stereo not drawn) [Compound 215] | 65% |
| COc1nc(C(C)(C)C(=O)NCc2cc(Cl)c(C3CCC(=O)NC3=O)c(Cl)c2)ncc1C (stereo not drawn) [Compound 216] | 82% |

same assay, conditions: CAL-51; NEK7 degradation, Cal51 NEK7 NanoBiT cells, 24 hours; read-out: NanoBiT Dmax

| Compound | Dmax |
| --- | --- |
| CC1(c2cnc(C(C)(C)C(=O)NCc3cc(Cl)c(C4CCC(=O)NC4=O)c(Cl)c3)nc2)CC1 (stereo not drawn) [Compound 207] | > 75% |
| CC(C)(C(=O)NCc1cc(Cl)c(C2CCC(=O)NC2=O)c(Cl)c1)c1nnc(C(F)(F)F)o1 (stereo not drawn) [Compound 208] | 50 to 75% |
| COc1cnc(C(C)(C)C(=O)NCc2cc(Cl)c(C3CCC(=O)NC3=O)c(Cl)c2)cn1 (stereo not drawn) [Compound 209] | > 75% |
| CC(C)(C(=O)NCc1cc(Cl)c(C2CCC(=O)NC2=O)c(Cl)c1)c1ccc(OC(F)F)nn1 (stereo not drawn) [Compound 210] | > 75% |
| CC(C)(C(=O)NCc1cc(Cl)c(C2CCC(=O)NC2=O)c(Cl)c1)C1CCCCC1 (stereo not drawn) [Compound 211] | > 75% |
| Cc1nc(C(C)(C)C(=O)NCc2cc(Cl)c(C3CCC(=O)NC3=O)c(Cl)c2)oc1C (stereo not drawn) [Compound 212] | > 75% |
| CC(C)(C(=O)NCc1cc(Cl)c(C2CCC(=O)NC2=O)c(Cl)c1)C1CCCC1 (stereo not drawn) [Compound 213] | > 75% |
| CC(C)(C(=O)NCc1cc(Cl)c(C2CCC(=O)NC2=O)c(Cl)c1)c1nccc(CO)n1 (stereo not drawn) [Compound 215] | 50 to 75% |
| COc1nc(C(C)(C)C(=O)NCc2cc(Cl)c(C3CCC(=O)NC3=O)c(Cl)c2)ncc1C (stereo not drawn) [Compound 216] | > 75% |

same assay, conditions: Cal51 NEK7 NanoBiT cells, 24 hours; read-out: NEK7 NanoBiT DC50

| Compound | DC50 |
| --- | --- |
| CC1(c2cnc(C(C)(C)C(=O)NCc3cc(Cl)c(C4CCC(=O)NC4=O)c(Cl)c3)nc2)CC1 (stereo not drawn) [Compound 207] | 19 nM |
| CC(C)(C(=O)NCc1cc(Cl)c(C2CCC(=O)NC2=O)c(Cl)c1)c1nnc(C(F)(F)F)o1 (stereo not drawn) [Compound 208] | 345 nM |
| COc1cnc(C(C)(C)C(=O)NCc2cc(Cl)c(C3CCC(=O)NC3=O)c(Cl)c2)cn1 (stereo not drawn) [Compound 209] | 1 nM |
| CC(C)(C(=O)NCc1cc(Cl)c(C2CCC(=O)NC2=O)c(Cl)c1)c1ccc(OC(F)F)nn1 (stereo not drawn) [Compound 210] | 2 nM |
| CC(C)(C(=O)NCc1cc(Cl)c(C2CCC(=O)NC2=O)c(Cl)c1)C1CCCCC1 (stereo not drawn) [Compound 211] | 8 nM |
| Cc1nc(C(C)(C)C(=O)NCc2cc(Cl)c(C3CCC(=O)NC3=O)c(Cl)c2)oc1C (stereo not drawn) [Compound 212] | 6 nM |
| CC(C)(C(=O)NCc1cc(Cl)c(C2CCC(=O)NC2=O)c(Cl)c1)C1CCCC1 (stereo not drawn) [Compound 213] | 33 nM |
| CC(C)(C(=O)NCc1cc(Cl)c(C2CCC(=O)NC2=O)c(Cl)c1)c1nccc(CO)n1 (stereo not drawn) [Compound 215] | 118 nM |
| COc1nc(C(C)(C)C(=O)NCc2cc(Cl)c(C3CCC(=O)NC3=O)c(Cl)c2)ncc1C (stereo not drawn) [Compound 216] | 21 nM |

same assay, conditions: NEK7 degradation, Cal51 NEK7 NanoBiT cells, 24 hours; read-out: NanoBiT DC50

| Compound | DC50 |
| --- | --- |
| CC1(c2cnc(C(C)(C)C(=O)NCc3cc(Cl)c(C4CCC(=O)NC4=O)c(Cl)c3)nc2)CC1 (stereo not drawn) [Compound 207] | ≤ 100 nM |
| CC(C)(C(=O)NCc1cc(Cl)c(C2CCC(=O)NC2=O)c(Cl)c1)c1nnc(C(F)(F)F)o1 (stereo not drawn) [Compound 208] | 100 to 1000 nM |
| COc1cnc(C(C)(C)C(=O)NCc2cc(Cl)c(C3CCC(=O)NC3=O)c(Cl)c2)cn1 (stereo not drawn) [Compound 209] | ≤ 100 nM |
| CC(C)(C(=O)NCc1cc(Cl)c(C2CCC(=O)NC2=O)c(Cl)c1)c1ccc(OC(F)F)nn1 (stereo not drawn) [Compound 210] | ≤ 100 nM |
| CC(C)(C(=O)NCc1cc(Cl)c(C2CCC(=O)NC2=O)c(Cl)c1)C1CCCCC1 (stereo not drawn) [Compound 211] | ≤ 100 nM |
| Cc1nc(C(C)(C)C(=O)NCc2cc(Cl)c(C3CCC(=O)NC3=O)c(Cl)c2)oc1C (stereo not drawn) [Compound 212] | ≤ 100 nM |
| CC(C)(C(=O)NCc1cc(Cl)c(C2CCC(=O)NC2=O)c(Cl)c1)C1CCCC1 (stereo not drawn) [Compound 213] | ≤ 100 nM |
| CC(C)(C(=O)NCc1cc(Cl)c(C2CCC(=O)NC2=O)c(Cl)c1)c1nccc(CO)n1 (stereo not drawn) [Compound 215] | 100 to 1000 nM |
| COc1nc(C(C)(C)C(=O)NCc2cc(Cl)c(C3CCC(=O)NC3=O)c(Cl)c2)ncc1C (stereo not drawn) [Compound 216] | ≤ 100 nM |
